Values quoted from earlier work, collected in patent US10937641B2, “MALDI mass spectrometry method” (BiosparQ B.V., priority 2017, dated 2021).
Converted amounts (≈) assume the structure as drawn.

Conditions: solubility defined at room temperature as intrinsic solubility

## N#CC(=Cc1ccc(O)cc1)C(=O)O [αCHCA, α-cyano-4-hydroxycinnamic acid]
  solubility in water: 6000 µg/mL (≈ 31.7 mM)
